Experimental data as given in PubChem BioAssay AID743095 (The Scripps Research Institute Molecular Screening Center, 2013).
Activity calls are given as the source filed them. How the calls were made is not given here.

What follows are compounds tested against Galanin receptor type 3 (Homo sapiens) (UniProt O60755) (assay: GalR3 antagonist potency curves, late-stage follow-up, cell-based, fluorescence, dose response (AID 743095)). Details: GalR3 cell line, fluorescence antagonist assay.
With `Cc1ccccc1Cn1c(C)nc2ccccc21` the IC50 was 3.41 µM. For `Cc1nn(C)c(C)c1CN(C)S(=O)(=O)c1ccc2ccccc2c1`, the IC50 was 1.23 µM. With `CC(C)(C)NC(=O)COC(=O)c1snc(C(=O)NC2CCCCC2)c1N` the IC50 was 3.19 µM. With `CC1CC(=O)NN=C1c1ccc(N)c([N+](=O)[O-])c1` (configuration not stated) the IC50 was 0.596 µM. `O=C(Cc1ccc(Cl)cc1Cl)Nc1ccncc1Cl` was tested, and the IC50 was 3.89 µM. `Cn1nc(C(C)(C)C)cc1C(=O)NCc1ccc(N2CCCC2=O)cc1` showed an IC50 of 5.27 µM. Compound `Cc1ccc(Oc2ccc(OCC(=O)Nc3ccncc3)cc2)cc1` has an IC50 of 0.428 µM. `COc1cc(CSc2nnnn2-c2ccc(C)cc2)cc(OC)c1OC` showed an IC50 of 3.44 µM. With `CCN(CC)S(=O)(=O)c1cc(NC(=O)CNc2cccc(S(=O)(=O)N3CCOCC3)c2)ccc1C` the IC50 was 3.56 µM. `Cc1nc2ccccc2n1Cc1ccc(Cl)cc1` was tested, and the IC50 was 1.26 µM. For `CCCCc1ccc(NC(=O)c2ccc(N(C)S(C)(=O)=O)cc2)cc1`, the IC50 was 0.696 µM. For `Nc1cc(-c2ccc(Br)cc2)nn1Cc1ccccc1`, the IC50 was 3.62 µM. With `Cc1nn(C)c(Nc2ccc(Br)cc2)c1Br` the IC50 was 4.14 µM. For `CCOC(=O)Cc1csc(NC(=O)c2cc(=O)c3ccccc3o2)n1`, the IC50 was 5.81 µM. With `Cc1cccc(Cl)c1NC(=O)N1CCCN(c2nc3ccc(Cl)cc3s2)CC1` the IC50 was 1.95 µM. `COc1ccc(-n2c(C)cc(C(=O)COC(=O)Cn3cnc4ccccc43)c2C)cc1` was tested, and the IC50 was > 29.9 µM (inactive). With `COc1ccc(NS(=O)(=O)c2ccc(NC(=O)c3ccc(CN4CCOCC4)cc3)cc2)cc1` the IC50 was 3 µM. Work on `CC(C)(C)c1ccc(C(=O)Nc2ccc(Oc3cccnc3)nc2)cc1` yielded an IC50 of 1.14 µM. Work on `COc1cccc2[nH]c3c(N4CCC(C)CC4)ncnc3c12` yielded an IC50 of 2.76 µM. In the case of `COc1cc2c(cc1OC)[C@@H]1C(=O)c3ccc4c(c3O[C@@H]1CO2)C[C@H](C(C)C)O4`, the IC50 is reported as 0.0123 µM. `NC(=O)c1nnn(Cc2cc(Cl)c(C(=O)c3ccc(Cl)cc3)c(Cl)c2)c1N` gave an IC50 of 3.44 µM. With `CCOc1nc(C#N)nc(N2CCCCC2)n1` the IC50 was 2.81 µM. Compound `O=C(CSc1nnnn1C1CC2CCC1C2)Nc1ccnc2ccccc12` (configuration not stated) has an IC50 of 0.14 µM. `COc1ccc(CN2CCC(C(=O)Nc3ccc(Oc4ccccc4)nc3)CC2)cc1F` showed an IC50 of 6.97 µM. In the case of `Nc1nonc1-n1nnc(C(=O)N/N=C/c2cc(Br)ccc2O)c1CSC1=NCCS1`, the IC50 is reported as 6.28 µM. `CC(C)(C)c1ccc(-n2ncc3c2CCCC3NC(=O)C2(C(N)=O)CC2)cc1` (configuration not stated) gave an IC50 of 2 µM. `Cc1cc(C(=O)CSc2nc(N)cc(=O)[nH]2)c(C)n1-c1ccc(OC(F)F)cc1` gave an IC50 of 1.35 µM. With `Cc1nn(C)c(Cl)c1NC(=O)OCc1ccc(Cl)cc1Cl` the IC50 was 4.16 µM. `Fc1ccc(NC(=S)N2CCCN(c3ccc(C(F)(F)F)cn3)CC2)c(F)c1` gave an IC50 of 0.402 µM. For `N#Cc1cc(-c2ccccc2)oc1NC(=O)c1ccco1`, the IC50 was “inactive”. For `NC(=O)c1c(-c2ccc(Cl)cc2Cl)csc1NC(=O)Cc1ccccc1`, the IC50 was 2.37 µM. Work on `S=C(NCCc1ccccc1)Nc1cccc2cnccc12` yielded an IC50 of 2.62 µM. Work on `CSc1ccc(C(=O)C2CCCN(C(=O)CCc3c(C)nn(C)c3C)C2)cc1` (configuration not stated) yielded an IC50 of 4.15 µM. `COc1ccc(CN(C)c2ccc(S(=O)(=O)N3CCN(C)CC3)cc2[N+](=O)[O-])cc1OC` showed an IC50 of 0.448 µM. With `Cc1cc(CSc2ccccc2)ccc1NC(=O)c1ccc(CN2CCOCC2)cc1` the IC50 was 0.529 µM. `CCOc1cc(S(=O)(=O)NCc2ccncc2)ccc1Cl` was tested, and the IC50 was 0.269 µM. For `CC(=O)c1ccc(N2CCN(C(=S)Nc3ccc(Oc4ccccc4)cc3)CC2)cc1`, the IC50 was 1.23 µM. With `CC(=O)c1c(C)[nH]c(C(=O)COc2cc(C)ccc2C(C)C)c1C` the IC50 was 3.58 µM. Work on `CCCOc1ccc(CSc2nc3ccccc3[nH]2)cc1` yielded an IC50 of 1.2 µM. Work on `COc1ccc(CCNc2ncnc3sccc23)cc1OC` yielded an IC50 of 0.438 µM. `CCCOC(=O)c1ccc(OCC(O)Cn2c(C)nc3ccccc32)cc1` (configuration not stated) gave an IC50 of 3.27 µM. `O=C(COc1ccc(C(=O)c2ccccc2)cc1)Nc1cccnc1` showed an IC50 of 1.24 µM. `CC(=O)c1cn(CC(=O)NCCc2c[nH]c3ccccc23)c2ccccc12` gave an IC50 of 4.14 µM. `COc1ccc(C(=O)CSc2nnc(Cn3cnc4ccccc43)o2)cc1` showed an IC50 of 3.18 µM. `CNc1ccccc1C(C)(C)c1cc(-c2ccc(F)cc2)no1` was tested, and the IC50 was 3.83 µM. Work on `CC1(C)CC2CC(C)(CN2S(=O)(=O)c2ccc(C(=O)Nc3cccc(S(=O)(=O)N4CCOCC4)c3)cc2)C1` (configuration not stated) yielded an IC50 of 2.11 µM. `CC(C)(C)CN1CCN(Cc2nc(-c3ccc(F)cc3)cs2)CC1CCO` (configuration not stated) was tested, and the IC50 was 3.24 µM. For `CCCCCn1c(=O)[nH]c2cc(C(=O)N3CCN(Cc4ccc5c(c4)OCO5)CC3)ccc2c1=O`, the IC50 was 0.143 µM. Compound `O=S(=O)(NCc1ccncc1)c1ccc(Br)s1` has an IC50 of 1.8 µM. Work on `Cc1cc(C)nc(SCC(=O)Nc2ccnc3ccccc23)n1` yielded an IC50 of 1.17 µM. In the case of `CCOC(=O)c1[nH]c2ccc(OC)cc2c1NS(=O)(=O)c1ccc(Cl)s1`, the IC50 is reported as 3.14 µM. With `COc1ccc(OC)c(CCNC(=O)Cn2nc(C)c3c(C)n(-c4ccc(C)cc4)nc3c2=O)c1` the IC50 was 3.8 µM. `O=C(CSc1nnc(Cn2nnc3ccccc32)o1)N(Cc1ccc(F)cc1)c1ccccc1` showed an IC50 of 1.24 µM. For `O=C(Nc1nc(-c2ccc(Cl)cc2Cl)cs1)c1ccc(OCC2CCCO2)cc1` (configuration not stated), the IC50 was 1.08 µM. With `Cc1ccccc1-c1cc(C(=O)Nc2sc(C(=O)OC(C)C)c(C)c2C#N)c2ccccc2n1` the IC50 was 1.13 µM. Compound `Cc1oc(-c2ccc(Cl)cc2)nc1CSCC(=O)NC1CCN(Cc2ccccc2)CC1` has an IC50 of 1.32 µM. With `Cc1[nH]c(=O)c(C#N)cc1-c1ccccc1` the IC50 was “inactive”.
